In US20250115597A1, “TYK2 INHIBITORS AND COMPOSITIONS AND METHODS THEREOF” (LYNK PHARMACEUTICALS CO. LTD., priority 2021, published 2025):
Converted amounts (≈) assume the structure as drawn.

Legend:
[1] = target: T1, JAK1 (Homo sapiens, UniProt P23458); experiment: JAK1 kinase activity, microfluidic assay (Caliper EZ Reader II); format: biochemical; conditions: JAK1 5 nM, 1 mM ATP
T1 construct: purchased Carna Biosciences
Summary of the method: (§1)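 Human JAK1, JAK2 or TYK2 enzyme was used in 50 mM HEPES, 10 mM MgCl2, 2 mM DTT and 0.01% Brij35, tuned to 10% conversion of a FAM-labelled peptide. Threefold dilutions of compound (top 5 µM, 1% DMSO) were pre-incubated with enzyme for 10 min, and reactions were stopped with EDTA. Phosphorylation was read by microfluidic mobility shift, and IC50 came from percent-inhibition curves.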

[2] = target: T2, TYK2 (Homo sapiens, UniProt P29597); experiment: TYK2 kinase activity, microfluidic assay (Caliper EZ Reader II); format: biochemical; conditions: TYK2 1 nM, 1 mM ATP
T2 construct: purchased Carna Biosciences
Summary of the method: as §1

[3] = Plasma protein binding by equilibrium dialysis; format: in vitro ADME; conditions: human plasma, equilibrium dialysis 5 hours at 37° C.; read-out: % Bound (human) (converted)
Summary of the method: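 Compound spiked into plasma at 0.2 and 2 μM was dialyzed against PBS for 5 h at 37° C with shaking, in duplicate. Plasma and buffer chambers were matrix-matched, protein-precipitated and analysed by LC-MS/MS to derive % unbound, % bound and % recovery.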

[4] = target: T3, JAK2 (Homo sapiens, UniProt O60674); experiment: JAK2 kinase activity, microfluidic assay (Caliper EZ Reader II); format: biochemical; conditions: JAK2 0.125 nM, 1 mM ATP
T3 construct: purchased Carna Biosciences
Summary of the method: as §1

[5] = Kinetic solubility; format: physicochemical; conditions: phosphate buffer, aqueous buffer, kinetic from dmso stock, PBS (pH 7.4), 1% DMSO, room temperature
Protocol: Aliquots of 8 μL of reference and test compound stock solutions (10 mM/5 mM) are added into 792 μL of 100 mM pH 7.4 phosphate buffer. The final DMSO concentration is 1%. Sample tubes are shaken for 2 hours at 1000 rpm at room temperature. Samples are centrifuged at 12000 rpm for 10 min to precipitate un-dissolved particles. And transfer the supernatants to a new tube or plate. Add 5 μL of samples (no diluted, 10 times diluted and 100 times diluted) and standard curve samples to 95 μL of ACN containing IS for LC-MS/MS analysis.

[6] = target: T4, Ba/F3-FL-TYK2-P760L cells (Homo sapiens, UniProt P29597, P760L, cells depend on it); experiment: Anti-proliferative assay, Ba/F3-FL-TYK2-P760L cells (Cell-Titer Glo); format: cell-based; conditions: 72 h, read-out: BaF3-FL-T2P760L IC50
T4 construct: BaF3-FL-T2P760L (nM)
Summary of the method: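 Ba/F3 cells made IL-3-independent by TEL-fused or full-length mutant JAK-family kinases, seeded at 2000/well and dosed after 24 h with 9 three-fold dilutions topping at 20 μM. Viability after 72 h at 37 °C, 5% CO2 by Cell-Titer Glo ATP luminescence.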

[7] = test system: pSTAT1; experiment: Phosphorylation inhibition of STAT in human PBMC, IFN-alpha stimulated (flow cytometry); format: cell-based; conditions: 20 min; human PBMC, IFN-alpha 20 mins, CD3 cells; read-out: IC50 on pSTAT1 inhibition in hPBMC
Protocol: Phosphorylation Inhibition of STAT in Human PBMC and Human Whole Blood Testing:
The inhibitory potential of test articles in human PBMC and human whole blood assay was evaluated by the method of flow cytometry.
IFN-alpha will activate JAK1 and TYK2 kinase in T cells by binding to IFN receptors, and then lead to phosphorylation of STAT1 and STAT2. The phosphorylated STAT1 enter nuclear and promote transcription and expression of IFN-gamma. To evaluate the efficacy of TYK2i in T cells, freshly prepared human PBMC or freshly collected human whole blood will be stimulated with certain unit of human IFN-alpha (Universal Type I IFN(1MU), R&D, 11200-2) for 20 mins in incubator. After stimulation, fix cells with Phosflow™ Fix Buffer I (BD, 557870), and then collect fixed cells by centrifugation (500 g, 8 min). Wash cells once with pre-cooled PBS, and then permeabilize cells with cold Perm Buffer III buffer (BD, 558050) for 45 mins on ice. Collect cells by centrifugation (600 g, 8 min) and washed twice with cold PBS. Stain cells with anti-human CD3 (FITC Mouse Anti-Human CD3, BD, 555332) and anti-pSTAT1_Y701(Alexa Fluor 647 Mouse Anti-Stat1 (pY701), BD, 612597) antibodies. Detect pSTAT1 by flow cytometry (CytoFlex S) and analyze data with FlowJo and GraphPad Prism 8 software. IC50 values of test articles were determined using 4-parameter logistic equation.

T2 sequence (P29597 whole entry): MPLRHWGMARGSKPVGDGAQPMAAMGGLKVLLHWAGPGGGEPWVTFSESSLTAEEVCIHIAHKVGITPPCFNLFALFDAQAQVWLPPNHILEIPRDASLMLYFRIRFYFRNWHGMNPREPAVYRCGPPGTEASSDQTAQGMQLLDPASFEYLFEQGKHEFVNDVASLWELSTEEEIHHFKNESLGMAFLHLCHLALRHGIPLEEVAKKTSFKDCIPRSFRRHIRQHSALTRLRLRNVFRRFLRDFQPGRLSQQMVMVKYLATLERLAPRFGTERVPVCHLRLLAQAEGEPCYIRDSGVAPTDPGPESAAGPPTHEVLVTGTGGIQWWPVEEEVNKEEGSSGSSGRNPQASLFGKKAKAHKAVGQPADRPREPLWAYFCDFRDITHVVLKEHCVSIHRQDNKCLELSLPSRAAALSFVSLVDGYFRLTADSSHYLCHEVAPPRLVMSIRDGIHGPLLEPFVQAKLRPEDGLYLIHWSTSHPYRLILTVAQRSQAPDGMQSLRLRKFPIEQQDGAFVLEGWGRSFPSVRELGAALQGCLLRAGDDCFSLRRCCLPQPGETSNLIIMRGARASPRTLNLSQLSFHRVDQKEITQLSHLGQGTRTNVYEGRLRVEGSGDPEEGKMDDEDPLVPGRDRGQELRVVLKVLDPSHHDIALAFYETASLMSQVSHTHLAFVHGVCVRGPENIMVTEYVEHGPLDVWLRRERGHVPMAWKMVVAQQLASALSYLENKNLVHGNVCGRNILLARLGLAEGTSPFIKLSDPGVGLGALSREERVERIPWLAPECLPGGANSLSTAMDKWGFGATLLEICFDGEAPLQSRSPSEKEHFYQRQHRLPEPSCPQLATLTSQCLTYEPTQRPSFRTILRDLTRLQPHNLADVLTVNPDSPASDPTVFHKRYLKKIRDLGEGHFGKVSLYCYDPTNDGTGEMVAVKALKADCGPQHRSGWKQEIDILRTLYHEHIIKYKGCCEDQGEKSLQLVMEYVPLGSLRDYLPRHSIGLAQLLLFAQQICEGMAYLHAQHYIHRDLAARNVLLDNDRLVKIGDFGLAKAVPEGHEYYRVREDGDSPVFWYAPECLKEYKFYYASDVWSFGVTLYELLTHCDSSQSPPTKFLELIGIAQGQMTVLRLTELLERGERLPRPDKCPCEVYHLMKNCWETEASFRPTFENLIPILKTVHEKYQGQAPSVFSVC
T4 sequence (P29597 whole entry P760L): as the sequence (P29597 whole entry) above, with P760L counted along it
T3 sequence (O60674 whole entry): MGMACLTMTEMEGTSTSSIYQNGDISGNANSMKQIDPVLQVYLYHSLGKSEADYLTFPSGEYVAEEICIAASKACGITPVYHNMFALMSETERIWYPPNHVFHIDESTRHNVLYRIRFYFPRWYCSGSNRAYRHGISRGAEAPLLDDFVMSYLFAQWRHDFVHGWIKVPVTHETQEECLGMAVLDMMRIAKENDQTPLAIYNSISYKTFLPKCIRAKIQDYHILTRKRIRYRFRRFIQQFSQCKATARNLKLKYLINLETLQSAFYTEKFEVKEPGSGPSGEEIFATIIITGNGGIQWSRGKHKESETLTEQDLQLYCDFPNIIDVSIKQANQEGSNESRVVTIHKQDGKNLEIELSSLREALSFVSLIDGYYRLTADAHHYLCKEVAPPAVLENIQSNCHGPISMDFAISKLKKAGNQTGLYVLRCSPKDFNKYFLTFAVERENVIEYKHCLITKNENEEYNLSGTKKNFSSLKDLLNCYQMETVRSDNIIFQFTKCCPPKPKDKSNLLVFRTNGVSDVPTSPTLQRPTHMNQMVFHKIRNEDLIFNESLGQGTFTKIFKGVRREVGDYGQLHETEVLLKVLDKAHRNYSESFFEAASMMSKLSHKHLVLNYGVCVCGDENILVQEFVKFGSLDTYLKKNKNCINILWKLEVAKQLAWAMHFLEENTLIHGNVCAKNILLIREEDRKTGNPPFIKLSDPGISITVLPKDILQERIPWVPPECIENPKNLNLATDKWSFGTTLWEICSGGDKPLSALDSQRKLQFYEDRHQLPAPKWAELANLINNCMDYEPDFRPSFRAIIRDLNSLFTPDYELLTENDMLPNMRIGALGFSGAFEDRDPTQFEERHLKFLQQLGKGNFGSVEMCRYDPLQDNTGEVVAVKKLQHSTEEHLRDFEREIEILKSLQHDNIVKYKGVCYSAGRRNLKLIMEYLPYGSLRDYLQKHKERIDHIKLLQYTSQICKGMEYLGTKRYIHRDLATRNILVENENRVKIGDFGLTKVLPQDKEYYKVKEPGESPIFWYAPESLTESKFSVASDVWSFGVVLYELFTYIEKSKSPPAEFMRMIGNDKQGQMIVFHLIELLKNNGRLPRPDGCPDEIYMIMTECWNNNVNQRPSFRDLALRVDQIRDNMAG
T1 sequence (P23458 whole entry): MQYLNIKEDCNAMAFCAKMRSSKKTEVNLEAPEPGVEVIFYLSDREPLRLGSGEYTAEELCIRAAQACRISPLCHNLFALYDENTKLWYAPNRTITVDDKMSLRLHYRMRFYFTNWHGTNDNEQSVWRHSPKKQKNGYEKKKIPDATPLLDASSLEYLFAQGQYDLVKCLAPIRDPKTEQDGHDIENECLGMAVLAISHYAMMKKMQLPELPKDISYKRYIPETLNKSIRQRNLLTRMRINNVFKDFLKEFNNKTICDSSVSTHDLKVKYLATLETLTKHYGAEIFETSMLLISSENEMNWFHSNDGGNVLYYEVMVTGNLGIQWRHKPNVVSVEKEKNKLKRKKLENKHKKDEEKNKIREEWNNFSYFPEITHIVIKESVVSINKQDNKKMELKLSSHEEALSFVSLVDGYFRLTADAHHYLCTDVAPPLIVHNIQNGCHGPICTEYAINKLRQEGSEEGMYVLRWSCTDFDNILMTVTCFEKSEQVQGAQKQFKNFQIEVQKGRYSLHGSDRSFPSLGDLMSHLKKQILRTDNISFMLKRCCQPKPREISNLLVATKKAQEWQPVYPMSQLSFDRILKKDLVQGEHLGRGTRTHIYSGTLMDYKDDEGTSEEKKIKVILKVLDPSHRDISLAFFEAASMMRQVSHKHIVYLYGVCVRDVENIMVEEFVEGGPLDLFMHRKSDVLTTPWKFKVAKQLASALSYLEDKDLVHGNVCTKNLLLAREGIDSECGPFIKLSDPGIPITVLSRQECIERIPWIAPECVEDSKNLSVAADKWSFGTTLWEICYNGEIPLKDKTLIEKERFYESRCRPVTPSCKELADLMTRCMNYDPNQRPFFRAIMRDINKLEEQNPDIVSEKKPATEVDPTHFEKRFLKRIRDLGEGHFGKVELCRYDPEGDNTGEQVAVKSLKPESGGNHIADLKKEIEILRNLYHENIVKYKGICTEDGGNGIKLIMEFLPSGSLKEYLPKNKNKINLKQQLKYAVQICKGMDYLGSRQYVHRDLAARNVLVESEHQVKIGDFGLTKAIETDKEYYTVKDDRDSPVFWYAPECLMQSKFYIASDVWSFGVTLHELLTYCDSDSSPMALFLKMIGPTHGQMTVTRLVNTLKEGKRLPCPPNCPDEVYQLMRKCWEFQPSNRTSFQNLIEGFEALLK

| IC50 [1] [nM] | IC50 [2] [nM] | fraction unbound at 5 h [3] | IC50 [4] [nM] | solubility at 2 h [5] [µM] | GI50 [6] [nM] | IC50 [7] [nM] | SMILES |
| --- | --- | --- | --- | --- | --- | --- | --- |
|  |  | 0.039 |  |  | 33.1 | 23.3 | [2H]C([2H])([2H])NC(=O)c1cnc(Nc2ccc(F)cn2)cc1Nc1nn(C)c2ccn(CC)c(=O)c12 [Example 139, 4-((5-Ethyl-1-methyl-4-oxo-4,5-dihydro-1H-pyrazolo[4,3-c]pyridin-3-yl)amino)-6-((5-fluoropyridin-2-yl)amino)-N-(methyl-d3)nicotinamide] |
| > 5000 | > 5000 | 0.124 | > 5000 | 17.6 (≈ 7.28 µg/mL) | 41.6 |  | [2H]C([2H])([2H])NC(=O)c1cnc(NC(=O)C2CC2)cc1Nc1ncc2cnn(CC)c2c1OC [Example 262, 6-(Cyclopropanecarboxamido)-4-((1-ethyl-7-methoxy-1H-pyrazolo[4,3-c]pyridin-6-yl)amino)-N-(methyl-d3)nicotinamide] |

More lines, now with the values behind:

| SMILES | IC50 [1] [nM] | IC50 [2] [nM] | fraction unbound at 5 h [3] | IC50 [4] [nM] | solubility at 2 h [5] [µM] | GI50 [6] [nM] | IC50 [7] [nM] |
| --- | --- | --- | --- | --- | --- | --- | --- |
| [2H]C([2H])([2H])NC(=O)c1cnc(NC(=O)C2CC2)cc1Nc1ccc2cnn(CC)c2c1OC [Example 44, 6-(Cyclopropanecarboxamido)-4-((1-ethyl-7-methoxy-1H-indazol-6-yl)amino)-N-(methyl-d3)nicotinamide] | > 5000 | > 5000 | 0.068 | > 5000 | 38.7 (≈ 15.9 µg/mL) | 56.2 | 14.9 |
| [2H]C([2H])([2H])NC(=O)c1cnc(NC(=O)C2CC2)cc1Nc1ccc2cnn(CC(F)(F)F)c2c1OC [Example 129, 6-(Cyclopropanecarboxamido)-4-((7-methoxy-1-(2,2,2-trifluoroethyl)-1H-indazol-6-yl)amino)-N-(methyl-d3)nicotinamide] |  |  | 0.034 |  | 13.6 (≈ 6.33 µg/mL) | 69.3 |  |
| [2H]C([2H])([2H])NC(=O)c1cnc(NC(=O)C2CC2)cc1Nc1ccn2ncc(C#N)c2c1OC [Example 165, 4-((3-Cyano-4-methoxypyrazolo[1,5-a]pyridin-5-yl)amino)-6-(cyclopropanecarboxamido)-N-(methyl-d3)nicotinamide] | > 5000 | > 5000 | 0.107 | > 5000 |  | 98.2 |  |
